Tested on: MX-1 human breast carcinoma
Format: in vivo
Procedure: Antitumor compounds were administered orally in a study to investigate whether such a formulation is efficacious against the MX-1 human breast carcinoma xenograft. Antitumor compound 0499 was formulated as Solution 1 in Example 6. Antitumor compound 0550 was formulated as Solution 2 in Example 6. Antitumor compound 0611 was formulated as Solution 3 in Example 6. Antitumor compound 0748 was formulated as Solution 4 in Example 6. Other antitumor compounds were formulated similarly. The compounds were prepared in a vehicle of 90% saline, 5% Cremophor, and 5% ethanol.
Female nu/nu mice (11-12 weeks of age; implanted subcutaneously with 1 mm^3 MX-1 human breast carcinoma fragments in the flank) were sorted into one control group (n=10) and four treatment (n=6) groups (group mean tumor size of 47-49 mg). The study was terminated on Day 63.

[1] = number of mice, single oral bolus Day 1, mg/kg: 0499 80, 0550 73, 0611 113, 0748 200, 6 mice/group, Day 63

## CCC(=O)O[C@H]1C(=O)[C@@]2(C)[C@H]([C@H](OC(=O)c3ccccc3)[C@]3(O)C[C@H](OC(=O)[C@H](O)[C@H](C=C(C)C)NC(=O)OC(C)(C)C)C(C)=C1C3(C)C)[C@]1(OC(C)=O)CO[C@@H]1C[C@@H]2O [Compound 0499]
MX-1, single oral bolus Day 1, six mice per group (0611: five evaluable), ended Day 63
  complete tumor regressions: two
Days until tumor reached 1.5 g, single oral bolus Day 1, mg/kg: 0499 80, 0550 73, 0611 113, 0748 200, 6 mice/group, terminated Day 63
  Mean Day of Survival (n): 56.6 ± 2.1 (3)
Number of mice, single oral bolus Day 1, mg/kg: 0499 80, 0550 73, 0611 113, 0748 200, 6 mice/group
  Toxic Deaths: 0
[1]
  Complete Response: 2
  Partial Response: 0
  Stable Disease: 1
po, 432 h
  % Reduction (Weight): 100.0%

Source: EP1285920A1, “C10 Ester sustituted taxanes as antitumor agents” (Florida State University Research Foundation, Inc., priority 2001, dated 2003)
